Experimental data: patent US8877707B2, “Inhibitors of HCV NS5A” (Presidio Pharmaceuticals, Inc., priority 2010, dated 2014)

System: HCV genotype 1b replicon in Huh 7 cells
Assay: HCV replicon assay (1b_Huh-Luc/Neo-ET cell line, luciferase readout)
Format: cell-based
Conditions: Hepatitis C virus; Table 2; genotype 1b replicon, Huh 7 cells, 72 h, luciferase; read-out: Inhibition of HCV genotype 1b
Outline: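 Huh 7 cells carrying a bicistronic genotype 1b luciferase replicon were treated with compound in triplicate the day after plating and incubated 72 h. Luciferase activity expressed as % of untreated control; EC50 from a four-parameter logistic fit, repeated several times.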

Row | SMILES | EC50 [nM]
1 | COC[C@H](NC(=O)OC)C(=O)N1CCC[C@H]1c1ncc(-c2ccc3cc(-c4ccc(-c5cnc([C@@H]6CCCN6C(=O)[C@H](NC(=O)OC)c6ccccc6)[nH]5)cc4)ccc3c2)[nH]1 [compound 316] | < 1
2 | COC(=O)N[C@@H](C)C(=O)N1CCC[C@H]1c1ncc(-c2ccc3cc(-c4ccc(-c5cnc([C@@H]6CCCN6C(=O)[C@H](NC(=O)OC)c6ccccc6)[nH]5)cc4)ccc3c2)[nH]1 [compound 319] | < 1
3 | COC(=O)NC(C(=O)N1CCC[C@H]1c1ncc(-c2ccc3cc(-c4ccc(-c5cnc([C@@H]6CCCN6C(=O)[C@H](NC(=O)OC)c6ccccc6)[nH]5)cc4)ccc3c2)[nH]1)[C@@H](C)O (stereo partly drawn) [compound 320] | < 1
4 | COC(=O)N[C@@H](C)C(=O)N1CCC[C@H]1c1ncc(-c2ccc3cc(-c4ccc(-c5cnc([C@@H]6COCCN6C(=O)[C@H](NC(=O)OC)c6ccccc6)[nH]5)cc4)ccc3c2)[nH]1 [compound 322] | < 1
5 | COC(=O)N[C@H](C(=O)N1CCC[C@H]1c1ncc(-c2ccc3cc(-c4ccc(-c5cnc([C@@H]6COCCN6C(=O)[C@H](NC(=O)OC)c6ccccc6)[nH]5)cc4)ccc3c2)[nH]1)[C@@H](C)OC [compound 323] | < 1
6 | COC(=O)N[C@H](C(=O)N1CCC[C@H]1c1ncc(-c2ccc3cc(-c4ccc(-c5cnc([C@@H]6COCCN6C(=O)[C@H](NC(=O)OC)c6ccccc6)[nH]5)cc4)ccc3c2)[nH]1)[C@@H](C)O [compound 324] | < 1
7 | COC(=O)N[C@@H](C)C(=O)N1CCOC[C@H]1c1ncc(-c2ccc3cc(-c4ccc(-c5cnc([C@@H]6CCCN6C(=O)[C@H](NC(=O)OC)c6ccccc6)[nH]5)cc4)ccc3c2)[nH]1 [compound 326] | < 1
8 | COC(=O)N[C@H](C(=O)N1CCOC[C@H]1c1ncc(-c2ccc3cc(-c4ccc(-c5cnc([C@@H]6CCCN6C(=O)[C@H](NC(=O)OC)c6ccccc6)[nH]5)cc4)ccc3c2)[nH]1)[C@@H](C)OC [compound 327] | < 1
9 | COC(=O)N[C@H](C(=O)N[C@@H](C)c1ncc(-c2ccc3cc(-c4ccc(-c5cnc([C@@H]6CCCN6C(=O)[C@H](NC(=O)OC)c6ccccc6)[nH]5)cc4)ccc3c2)[nH]1)[C@@H](C)OC [compound 329] | < 1
10 | COC(=O)N[C@H](C(=O)N1CCC[C@H]1c1ncc(-c2ccc3cc(-c4ccc(-c5cnc([C@@H]6CCCN6C(=O)[C@H](NC(=O)OC)c6ccccc6)[nH]5)cn4)ccc3c2)[nH]1)C1CCOCC1 [compound 337] | < 1
11 | COC(=O)N[C@@H](C)C(=O)N1CCC[C@H]1c1ncc(-c2ccc3cc(-c4ccc(-c5cnc([C@@H]6CCCN6C(=O)[C@H](NC(=O)OC)c6ccccc6)[nH]5)cn4)ccc3c2)[nH]1 [compound 338] | < 1
12 | CC[C@H](C)C(NC(=O)OC)C(=O)N1CCC[C@H]1c1nc2ccc(-c3ccc4cc(-c5cnc([C@@H]6CCCN6C(=O)[C@@H](NC(=O)OC)[C@@H](C)CC)[nH]5)ccc4c3)cc2[nH]1 (stereo partly drawn) [compound 346] | < 1
13 | COC(=O)N[C@H](C(=O)N1CCC[C@H]1c1ncc(-c2ccc3cc(-c4ccc5nc([C@@H]6CCCN6C(=O)[C@@H](NC(=O)OC)C6CCCCC6)[nH]c5c4)ccc3c2)[nH]1)C1CCCCC1 [compound 348] | < 1
14 | COC(=O)N[C@H](C(=O)N1CCC[C@H]1c1ncc(-c2ccc3cc(-c4ccc5nc([C@@H]6COCCN6C(=O)[C@@H](NC(=O)OC)C6CCCC6)[nH]c5c4)ccc3c2)[nH]1)C1CCCC1 [compound 350] | < 1
15 | CCC(CC)[C@H](NC(=O)OC)C(=O)N1CCC[C@H]1c1ncc(-c2ccc3cc(-c4ccc5nc([C@@H]6COCCN6C(=O)[C@@H](NC(=O)OC)C(CC)CC)[nH]c5c4)ccc3c2)[nH]1 [compound 351] | < 1
16 | CC[C@@H](C)[C@H](NC(=O)OC)C(=O)N1CCC[C@H]1c1ncc(-c2ccc3cc(-c4ccc5nc([C@@H]6COCCN6C(=O)[C@@H](NC(=O)OC)[C@H](C)CC)[nH]c5c4)ccc3c2)[nH]1 [compound 352] | < 1
17 | CC[C@H](C)[C@H](NC(=O)OC)C(=O)N1CCC[C@H]1c1ncc(-c2ccc3cc(-c4ccc5nc([C@@H]6COCCN6C(=O)[C@@H](NC(=O)OC)[C@@H](C)CC)[nH]c5c4)ccc3c2)[nH]1 [compound 353] | < 1
18 | COC(=O)N[C@H](C(=O)N1CCC[C@H]1c1ncc(-c2ccc3cc(-c4ccc5nc([C@@H]6COCCN6C(=O)[C@@H](NC(=O)OC)[C@@H](C)OC)[nH]c5c4)ccc3c2)[nH]1)[C@@H](C)OC [compound 354] | < 1
19 | COC(=O)N[C@H](C(=O)N1CCC[C@H]1c1ncc(-c2ccc3cc(-c4ccc5nc([C@@H]6COCCN6C(=O)[C@@H](NC(=O)OC)[C@@H](C)O)[nH]c5c4)ccc3c2)[nH]1)[C@@H](C)O [compound 355] | < 1
20 | COC(=O)N[C@H](C(=O)N1CCC[C@H]1c1ncc(-c2ccc3cc(-c4ccc5nc([C@@H]6COCCN6C(=O)[C@@H](NC(=O)OC)C6CC6)[nH]c5c4)ccc3c2)[nH]1)C1CC1 [compound 356] | < 1
21 | CC[C@H](NC(=O)OC)C(=O)N1CCC[C@H]1c1ncc(-c2ccc3cc(-c4ccc5nc([C@@H]6COCCN6C(=O)[C@H](CC)NC(=O)OC)[nH]c5c4)ccc3c2)[nH]1 [compound 357] | < 1
22 | COC(=O)N[C@@H](C)C(=O)N1CCC[C@H]1c1ncc(-c2ccc3cc(-c4ccc5nc([C@@H]6COCCN6C(=O)[C@H](C)NC(=O)OC)[nH]c5c4)ccc3c2)[nH]1 [compound 359] | < 1
23 | COC(=O)N[C@H](C(=O)N1CCC[C@H]1c1ncc(-c2ccc3cc(-c4ccc5nc([C@@H]6COCCN6C(=O)[C@@H](NC(=O)OC)C6CCCCC6)[nH]c5c4)ccc3c2)[nH]1)C1CCCCC1 [compound 361] | < 1
24 | COC(=O)N[C@H](C(=O)N1CCC[C@H]1c1ncc(-c2ccc3cc(-c4ccc5nc([C@@H]6CCCN6C(=O)[C@@H](NC(=O)OC)C6CCCC6)[nH]c5c4)ncc3c2)[nH]1)C1CCCC1 [compound 372] | < 1
25 | CC[C@H](C)[C@H](NC(=O)OC)C(=O)N1CCC[C@H]1c1ncc(-c2ccc3cc(-c4ccc5nc([C@@H]6CCCN6C(=O)[C@@H](NC(=O)OC)[C@@H](C)CC)[nH]c5c4)ncc3c2)[nH]1 [compound 374] | < 1
26 | CC[C@@H](C)[C@H](NC(=O)OC)C(=O)N1CCC[C@H]1c1ncc(-c2ccc3cc(-c4ccc5nc([C@@H]6CCCN6C(=O)[C@@H](NC(=O)OC)[C@H](C)CC)[nH]c5c4)ncc3c2)[nH]1 [compound 375] | < 1
27 | COC(=O)N[C@H](C(=O)N1CCC[C@H]1c1ncc(-c2ccc3cc(-c4ccc5nc([C@@H]6CCCN6C(=O)[C@@H](NC(=O)OC)C6CC6)[nH]c5c4)ncc3c2)[nH]1)C1CC1 [compound 376] | < 1
28 | COC(=O)N[C@H](C(=O)N1CCC[C@H]1c1ncc(-c2ccc3cc(-c4ccc5nc([C@@H]6CCCN6C(=O)[C@@H](NC(=O)OC)[C@@H](C)OC)[nH]c5c4)ncc3c2)[nH]1)[C@@H](C)OC [compound 377] | < 1
29 | COC(=O)N[C@H](C(=O)N1CCC[C@H]1c1ncc(-c2ccc3cc(-c4ccc5nc([C@@H]6CCCN6C(=O)[C@@H](NC(=O)OC)C6CCCCC6)[nH]c5c4)ncc3c2)[nH]1)C1CCCCC1 [compound 379] | < 1
30 | COC(=O)N[C@H](C(=O)N1CCC[C@H]1c1ncc(-c2ccc3nc(-c4ccc5nc([C@@H]6CCCN6C(=O)[C@@H](NC(=O)OC)C6CCCC6)[nH]c5c4)ccc3c2)[nH]1)C1CCCC1 [compound 381] | < 1
